# In paper PMC12644596 (Scientific Reports, 2025):
# Assay: MTT test, normal cells, 24 h
# Assay type: cell-based
# Settings: human, human dermal adult fibroblasts (HDFa)
smiles,measurement,value
"O=[N+]([O-])c1ccc(NCCCCN=C=S)c2nonc12 [NBDC4NCS, N-(4-isothiocyanatobutyl)-7-nitro-2,1,3-benzoxadiazol-4-amine]",viability at 24 h,~70%
